Measured values taken from the Kinase Knowledgebase extract (Sharma et al. 2016).

These molecules were tested against PIK3CG (human) (UniProt P48736) (assay: Assessment of PIK3CG Kinase Activity).
PIK3CG (human), sequence (P48736 whole entry, looked up): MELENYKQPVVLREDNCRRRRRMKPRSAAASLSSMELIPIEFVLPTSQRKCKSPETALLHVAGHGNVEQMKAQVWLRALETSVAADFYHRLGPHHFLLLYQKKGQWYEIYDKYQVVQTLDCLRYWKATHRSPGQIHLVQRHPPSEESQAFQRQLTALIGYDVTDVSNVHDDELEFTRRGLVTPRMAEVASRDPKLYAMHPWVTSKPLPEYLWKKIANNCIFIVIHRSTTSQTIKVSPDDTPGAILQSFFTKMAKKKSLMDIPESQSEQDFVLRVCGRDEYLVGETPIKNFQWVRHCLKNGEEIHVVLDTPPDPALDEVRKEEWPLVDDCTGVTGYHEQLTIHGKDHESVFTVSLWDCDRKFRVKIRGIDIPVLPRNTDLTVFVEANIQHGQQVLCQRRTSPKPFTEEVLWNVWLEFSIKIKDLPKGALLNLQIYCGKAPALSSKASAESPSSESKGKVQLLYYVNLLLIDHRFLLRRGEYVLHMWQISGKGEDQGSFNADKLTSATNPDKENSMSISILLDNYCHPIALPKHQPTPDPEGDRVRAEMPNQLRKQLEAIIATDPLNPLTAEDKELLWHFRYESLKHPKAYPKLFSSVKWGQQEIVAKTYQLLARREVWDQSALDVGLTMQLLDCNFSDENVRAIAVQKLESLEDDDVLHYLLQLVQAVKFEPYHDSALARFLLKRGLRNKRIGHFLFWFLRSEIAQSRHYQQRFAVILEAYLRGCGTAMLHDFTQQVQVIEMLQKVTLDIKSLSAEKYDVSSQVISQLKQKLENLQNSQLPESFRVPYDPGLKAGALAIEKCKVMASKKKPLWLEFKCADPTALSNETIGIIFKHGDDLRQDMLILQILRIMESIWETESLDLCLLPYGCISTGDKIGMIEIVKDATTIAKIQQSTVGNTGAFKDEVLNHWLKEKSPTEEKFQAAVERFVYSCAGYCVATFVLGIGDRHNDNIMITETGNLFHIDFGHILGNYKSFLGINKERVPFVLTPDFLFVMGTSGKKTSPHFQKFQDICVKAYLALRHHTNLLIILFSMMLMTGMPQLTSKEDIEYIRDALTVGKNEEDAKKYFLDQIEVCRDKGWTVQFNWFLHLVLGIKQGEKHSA

First: COc1cc(C#Cc2sc(NC(=O)NCCn3cnc(C(F)(F)F)c3)nc2C)cnc1OC
Second: Cc1nc(NC(=O)NCCn2cnc(C(F)(F)F)c2)sc1C#Cc1ccncc1
The Ki of the first is lower: less than 50 nM for the first, 50 to 250 nM for the second.

First: CC(=O)NCC(=O)Nc1nc(C)c(C#Cc2ccncc2)s1
Second: COC(=O)CCCC(=O)Nc1nc(C)c(C#Cc2ccncc2)s1
The Ki of the first is lower: less than 50 nM for the first, 50 to 250 nM for the second.

`CCCn1cnc(CCNC(=O)Nc2nc(C)c(C#Cc3ccncc3)s2)c1` and `Cc1nc(NC(=O)NCCc2cn(CCF)cn2)sc1C#Cc1ccncc1` cannot be ordered by Ki: less than 50 nM for the first, less than 50 nM for the second.

Compared with `Cc1nc(NC(=O)NCCCOCC2CC2)sc1C#Cc1ccncc1`, `Cc1nc(NC(=O)NCCOCC2CCCC2)sc1C#Cc1ccncc1` is lower in Ki: 50 to 250 nM for the first, less than 50 nM for the second. The second binds more tightly here.

First: CC(=O)N1CC(C(=O)Nc2nc(C)c(C#Cc3ccncc3)s2)C1
Second: COC1CN(C(=O)Nc2nc(C)c(C#Cc3ccncc3)s2)C1
The Ki of the first is higher: 50 to 250 nM for the first, less than 50 nM for the second. The second binds more tightly here.

`CCc1cnc(CCNC(=O)Nc2nc(C)c(C#Cc3cncc(OC)c3)s2)s1` and `CCc1cnc(CCNC(=O)Nc2nc(C)c(C#Cc3ccncc3)s2)s1` cannot be ordered by Ki: less than 50 nM for the first, less than 50 nM for the second.

`CC(=O)Nc1nc(C)c(C#Cc2ccc(Cl)nc2)s1` and `CC(=O)Nc1nc(C)c(C#Cc2cccc(N)c2)s1` fall in the same range of Ki: 50 to 250 nM for the first, 50 to 250 nM for the second.

`Cc1nc(NC(=O)N2CCC(OCc3ccccc3)C2)sc1C#Cc1ccncc1` (configuration not stated) and `Cc1nc(NC(=O)COCc2ccccc2)sc1C#Cc1ccncc1` fall in the same range of Ki: 50 to 250 nM for the first, 50 to 250 nM for the second.

`Cc1nc(NC(=O)NCCC2CCCCO2)sc1C#Cc1ccncc1` (configuration not stated) and `Cc1nc(NC(=O)NCC2CCCCO2)sc1C#Cc1ccncc1` (configuration not stated) cannot be ordered by Ki: less than 50 nM for the first, less than 50 nM for the second.

`Cc1nc(NC(=O)NCCCOCC(F)(F)F)sc1C#Cc1ccncc1` and `Cc1nc(NC(=O)NCCOCC(F)(F)F)sc1C#Cc1ccncc1` fall in the same range of Ki: 50 to 250 nM for the first, 50 to 250 nM for the second.

`COC(=O)c1ccn2cc(CCNC(=O)Nc3nc(C)c(C#Cc4ccncc4)s3)nc2c1` and `Cc1nc(NC(=O)NCCc2ccncc2)sc1C#Cc1ccncc1` fall in the same range of Ki: 50 to 250 nM for the first, 50 to 250 nM for the second.

First: COc1ccc(C#Cc2sc(NC(=O)NC[C@H](C)OCC3CC3)nc2C)cn1
Second: COc1ccc(C#Cc2sc(NC(=O)NCCOCC3CC3)nc2C)cn1
The Ki of the first is lower: less than 50 nM for the first, 50 to 250 nM for the second. The first binds more tightly here.

`Cc1nc(NC(=O)NCCOCC2CC2)sc1C#Cc1cccc2ncccc12` and `Cc1nc(NC(=O)NCCOCC2CC2)sc1C#Cc1ccnc2ccccc12` cannot be ordered by Ki: less than 50 nM for the first, less than 50 nM for the second.

Compared with `Cc1nc(NC(=O)NCCc2cn(CC(F)F)cn2)sc1C#Cc1ccccc1`, `Cc1nc(NC(=O)NCCc2cn(CC(F)F)cn2)sc1C#Cc1cccnc1` is lower in Ki: 50 to 250 nM for the first, less than 50 nM for the second.

`CCCCOCCCNC(=O)Nc1nc(C)c(C#Cc2ccncc2)s1` and `CCCOCCNC(=O)Nc1nc(C)c(C#Cc2ccncc2)s1` cannot be ordered by Ki: less than 50 nM for the first, less than 50 nM for the second.

`Cc1nc(NC(=O)NCCOCC2CC2)sc1C#Cc1ccnc(F)c1` and `Cc1nc(NC(=O)NCCOCC2CC2)sc1C#Cc1cc(F)ncc1Cl` cannot be ordered by Ki: less than 50 nM for the first, less than 50 nM for the second.

`Cc1nc(NC(=O)NCCC2COCCO2)sc1C#Cc1ccncc1` (configuration not stated) and `Cc1nc(NC(=O)NCC2CCCO2)sc1C#Cc1ccncc1` (configuration not stated) cannot be ordered by Ki: less than 50 nM for the first, less than 50 nM for the second.

`CCOC(=O)CCCNC(=O)Nc1nc(C)c(C#Cc2ccncc2)s1` and `COCCNC(=O)Nc1nc(C)c(C#Cc2ccncc2)s1` cannot be ordered by Ki: less than 50 nM for the first, less than 50 nM for the second.

Compared with `COc1cccc(C#Cc2sc(NC(=O)NCCOCC3CC3)nc2C)c1`, `Cc1nc(NC(=O)NCCOCC2CC2)sc1C#Cc1cccnc1` is lower in Ki: 50 to 250 nM for the first, less than 50 nM for the second.

`Cc1nc(NC(=O)NC[C@H](C)OCC2CC2)sc1C#Cc1ccc2ncccc2c1` and `Cc1nc(NC(=O)NC[C@H](C)OCC2CC2)sc1C#Cc1ccc2nccnc2c1` cannot be ordered by Ki: less than 50 nM for the first, less than 50 nM for the second.

`Cc1nc(NC(=O)NCCOc2ccccc2)sc1C#Cc1ccncc1` and `Cc1nc(NC(=O)NCCOc2ccccc2)sc1C#Cc1cccnc1` cannot be ordered by Ki: less than 50 nM for the first, less than 50 nM for the second.

First: Cc1nc(NC(=O)NCCOCCN2CCOCC2)sc1C#Cc1ccncc1
Second: CCCOCCOC(=O)Nc1nc(C)c(C#Cc2ccncc2)s1
The Ki of the first is higher: 50 to 250 nM for the first, less than 50 nM for the second.

`CC(=O)Nc1nc(C)c(C#Cc2ccccc2)s1` and `CC(=O)Nc1nc(C)c(C#Cc2cccc(C)c2)s1` fall in the same range of Ki: 50 to 250 nM for the first, 50 to 250 nM for the second.

First: Cc1nc(NC(=O)NCC2Cc3ccccc3O2)sc1C#Cc1ccncc1 (configuration not stated)
Second: Cc1nc(NC(=O)NC2COc3ccccc3C2)sc1C#Cc1ccncc1 (configuration not stated)
The Ki of the first is lower: less than 50 nM for the first, 50 to 250 nM for the second. The first binds more tightly here.

`Cc1nc(NC(=O)NCCOCC2CC2)sc1C#Cc1cncn1C` and `Cc1nc(NC(=O)NCCOCC2CC2)sc1C#Cc1ccn(C)c(=O)c1` fall in the same range of Ki: 50 to 250 nM for the first, 50 to 250 nM for the second.

`COc1cncc(C#Cc2sc(NC(=O)NC[C@H](C)O)nc2C)c1` and `CCCO[C@@H](C)CNC(=O)Nc1nc(C)c(C#Cc2cncc(OC)c2)s1` cannot be ordered by Ki: less than 50 nM for the first, less than 50 nM for the second.

First: COc1ccc(C#Cc2sc(NC(=O)NCCOCC3CC3)nc2C)nc1OC
Second: COc1cc(C#Cc2sc(NC(=O)NCCOCC3CC3)nc2C)cc(OC)c1
The Ki of the first is lower: less than 50 nM for the first, 50 to 250 nM for the second.

First: Cc1nc(NC(=O)NCCC(=O)N(C)CC(F)(F)F)sc1C#Cc1ccccc1
Second: Cc1nc(NC(=O)NCCC(=O)OC(C)(C)C)sc1C#Cc1ccccc1
The Ki of the first is higher: 50 to 250 nM for the first, less than 50 nM for the second.

`Cc1nc(NC(=O)NCCOCC2CC2)sc1C#Cc1cnc(Cl)c(F)c1` and `Cc1nc(NC(=O)NCCOCC2CC2)sc1C#Cc1ccc(Cl)nc1` fall in the same range of Ki: 50 to 250 nM for the first, 50 to 250 nM for the second.

`COc1ccc(C#Cc2sc(NC(C)=O)nc2C)cc1` and `COc1cccc(C#Cc2sc(NC(C)=O)nc2C)c1` fall in the same range of Ki: 50 to 250 nM for the first, 50 to 250 nM for the second.

First: COc1ncc(C#Cc2sc(NC(=O)NCCOCC3CC3)nc2C)cn1
Second: Cc1nc(NC(=O)NCCOCC2CC2)sc1C#Cc1cncc(C(F)(F)F)c1
The Ki of the first is lower: less than 50 nM for the first, 50 to 250 nM for the second. The first binds more tightly here.

Compared with `Cc1nc(NC(=O)NCCOc2cccnc2)sc1C#Cc1ccnc(Cl)c1`, `Cc1nc(NC(=O)NCCOc2cccc(Cl)c2)sc1C#Cc1ccncc1` is lower in Ki: 50 to 250 nM for the first, less than 50 nM for the second.

`Cc1nc(NC(=O)CNC(=O)c2ccccn2)sc1C#Cc1cccnc1` and `Cc1nc(NC(=O)NCc2ccccn2)sc1C#Cc1ccncc1` cannot be ordered by Ki: less than 50 nM for the first, less than 50 nM for the second.

First: Cc1nc(NC(=O)CCC(=O)OC(C)(C)C)sc1C#Cc1ccncc1
Second: Cc1nc(NC(=O)NCCC(=O)NC(C)(C)C)sc1C#Cc1ccncc1
The Ki of the first is higher: 50 to 250 nM for the first, less than 50 nM for the second. The second binds more tightly here.

`Cc1nc(NC(=O)CCCC(=O)NCC(F)F)sc1C#Cc1ccncc1` and `Cc1nc(NC(=O)CCCc2cc[nH]c2)sc1C#Cc1ccncc1` fall in the same range of Ki: 50 to 250 nM for the first, 50 to 250 nM for the second.

`CCOCCNC(=O)Nc1nc(C)c(C#Cc2ccccc2)s1` and `Cc1nc(NC(=O)NCCOC(=O)c2ccccc2)sc1C#Cc1ccncc1` cannot be ordered by Ki: less than 50 nM for the first, less than 50 nM for the second.

Compared with `Cc1nc(NC(=O)COc2ccccc2)sc1C#Cc1ccncc1`, `Cc1nc(NC(=O)NCCOc2ccc(F)cc2)sc1C#Cc1ccncc1` is lower in Ki: 50 to 250 nM for the first, less than 50 nM for the second. The second binds more tightly here.

First: CCc1ccc(OCCNC(=O)Nc2nc(C)c(C#Cc3ccncc3)s2)cc1
Second: COc1ccc(OCCNC(=O)Nc2nc(C)c(C#Cc3ccncc3)s2)cc1
The Ki of the first is higher: 50 to 250 nM for the first, less than 50 nM for the second.

`CCc1nc(NC(C)=O)sc1C#Cc1ccncc1` and `Cc1nc(NC(=O)NCCc2nccs2)sc1C#Cc1ccncc1` fall in the same range of Ki: 50 to 250 nM for the first, 50 to 250 nM for the second.

First: Cc1nc(NC(=O)NCCOCC2CC2)sc1C#Cc1ccc2nccnc2c1
Second: Cc1nc(NC(=O)NCCOCC2CC2)sc1C#Cc1cnc2ccccc2c1
The Ki of the first is lower: less than 50 nM for the first, 50 to 250 nM for the second.

`COc1cc(C#Cc2sc(NC(=O)NCCOc3ccncc3)nc2C)cnc1OC` and `Cc1nc(NC(=O)NCCc2ncn(CC(F)F)c2Cl)sc1C#Cc1ccncc1` cannot be ordered by Ki: less than 50 nM for the first, less than 50 nM for the second.

`CC(=O)Nc1nc(C)c(C#Cc2cncc(C(F)(F)F)c2)s1` and `CC(=O)Nc1nc(C)c(C#Cc2ccsc2)s1` fall in the same range of Ki: 50 to 250 nM for the first, 50 to 250 nM for the second.

`COc1cncc(C#Cc2sc(NC(=O)NC[C@H](C)OCC3CC3)nc2C)c1` and `Cc1nc(NC(=O)NCCOCC2CC2)sc1C#Cc1ccncc1F` cannot be ordered by Ki: less than 50 nM for the first, less than 50 nM for the second.

Molecule `CC(=O)Nc1nc(C)c(C#Cc2cncn2C)s1` has a Ki of 50 to 250 nM.
